Common to all, as to format: cell-based, human
One experiment deals with HepG-2. Put plainly: MTT cytotoxicity assay, HepG-2. The protocol:
(§1) Five kinds of tumor cell lines and one normal endothelial cell were routinely cultured respectively in RPMI 1640 medium supplemented with 10% (V/V) FBS and 1% (V/V) penicillin-streptomycin, incubated at 37 °C in a 5% CO2 containing incubator. The five tumor cell lines were plated onto 96-well sterile plates in 100 μL/well of medium at a density of 3.5 × 10^3 cells per well and incubated at 37 °C with 5% CO2 for 24 h. Then luteolin, baicalein, apigenin, chrysin, quercetin, fisetin, genistein, daidzein, naringenin, DDP and compounds 10–25 were added at various concentrations (5, 10, 20, 40, 50 μΜ). Each plate contained control group, blank group, drug group and positive group (DDP). After 72 h, 20 μL MTT in phosphate buffered saline (PBS, 5 mg/mL) was added to each well and the plates were incubated at 37 °C for 4 h, then removing the liquid and adding dimethyl sulfoxide (DMSO, 100 μL) to dissolve the MTT formazan. The optical density (OD) for each well was measured on a BIORAD 550 spectrophotometer plate reader (Bio-Gene Technology Ltd., Guangzhou, China) at a wavelength of 490 nm. All tests were carried out three times in parallel.
In general terms: Tetrazolium assays rely on reduction of a dye to a coloured formazan, in cell work by metabolically active cells.

Another experiment deals with MCF-7. Put plainly: MTT cytotoxicity assay, MCF-7. The protocol: as §1
The subject of the next experiment is HeLa. Put plainly: MTT cytotoxicity assay, HeLa. As to conditions: 72 h. The protocol: as §1
The subject of the next experiment is Bel-7402. The experiment can be described thus: MTT cytotoxicity assay, Bel-7402. The procedure:
as §1

A further experiment deals with HT-29. The experiment can be described thus: MTT cytotoxicity assay, HT-29. The protocol: as §1
The next experiment relates to HUVEC-12. The experiment can be described thus: MTT cytotoxicity assay using HUVEC-12 cell. As to conditions: for Proliferation Rate (%) 2.5 μM / Proliferation Rate (%) 5 μM / Proliferation Rate (%) 10 μM / Proliferation Rate (%) 20 μM / Proliferation Rate (%) 40 μM: HUVEC-12, 24 h, negative = inhibition; for IC50: MTT, 24 h. The protocol:
Five kinds of tumor cell lines and one normal endothelial cell were routinely cultured respectively in RPMI 1640 medium supplemented with 10% (V/V) FBS and 1% (V/V) penicillin-streptomycin, incubated at 37 °C in a 5% CO2 containing incubator.
The HUVEC-12 cell were seeded in 96-well plates (6.0 × 10^3 cells/ well), and incubated at 37 °C in a 5% CO2 containing incubator. After 24 h, the medium was replaced with fresh medium containing the compounds to be tested. Compounds 14, 19 and DDP were added in final concentrations ranging from 2.5 to 40 μM. Each plate contained control group, blank group and drug group. After 24 h, 20 μL MTT was added to each well and the plates were incubated at 37 °C for 4 h, then removing the liquid and adding dimethyl sulfoxide (DMSO) (100 μL) to dissolve the MTT formazan. The optical density (OD) for each well was measured on a BIORAD 550 spectrophotometer plate reader at a wavelength of 490 nm. All tests were carried out three times in parallel. The proliferation inhibition rates of tumor cells were calculated by {1 − [OD490 (Drug group) − OD490 (Blank group)]/[OD490 (Control group) − OD490 (Blank group)]} × 100%.

For the compound `O=c1cc(-c2ccc(O)cc2)oc2cc(O)cc(O)c12` [Apigenin], the 50% inhibitory concentration (IC50) (as a rule, the concentration at which inhibition is half-maximal) in the experiment with HepG-2 (Homo sapiens, HepG2, 72 h) amounted to 16.1 ± 1.52 µM; in the experiment with MCF-7 (Homo sapiens, MCF7, 72 h) it was 29.7 ± 1.43 µM; with HeLa (Homo sapiens) it was 30.6 ± 0.71 µM; with Bel-7402 (Homo sapiens, Bel-7402, 72 h), 28.2 ± 0.38 µM; in the experiment on HT-29 (Homo sapiens, HT-29, 72 h), 23.4 ± 1.89 µM.
The matching figures for `O=c1cc(-c2ccccc2)oc2cc(O)c(O)c(O)c12` [Baicalein]: 20.4 ± 2.07 µM, 37.9 ± 1.52 µM, 22.8 ± 3.54 µM, 21.6 ± 3.68 µM and 19.2 ± 2.72 µM.
As for `O=c1cc(-c2ccccc2)oc2cc(O)cc(O)c12` [Chrysin], the IC50 with HepG-2 (Homo sapiens, HepG2, 72 h) was 15.6 ± 0.3 µM; in the experiment on MCF-7 (Homo sapiens, MCF7, 72 h), 32.1 ± 2.78 µM; in the experiment with HeLa (Homo sapiens), more than 40 µM; in the experiment on Bel-7402 (Homo sapiens, Bel-7402, 72 h), 35 ± 1.46 µM; in the experiment on HT-29 (Homo sapiens, HT-29, 72 h), 30.3 ± 1.96 µM.
The matching figures for `Cc1nc(C)c(COc2cc(O)c3c(=O)cc(-c4ccccc4)oc3c2)nc1C` [Compound 10, 5-Hydroxy-2-phenyl-7-((3,5,6-trimethylpyrazin-2-yl)methoxy)-4H-chromen-4-one]: more than 40 µM, more than 40 µM, 26.7 ± 0.34 µM, more than 40 µM and more than 40 µM.
The matching figures for `Cc1nc(C)c(COc2cc3oc(-c4ccccc4)cc(=O)c3c(OCc3nc(C)c(C)nc3C)c2OCc2nc(C)c(C)nc2C)nc1C` [Compound 13, 2-Phenyl-5,6,7-tris((3,5,6-trimethylpyrazin-2-yl)methoxy)-4H-chromen-4-one]: 13.4 ± 2.5 µM, more than 40 µM, 17.3 ± 1.07 µM, 26.13 ± 0.11 µM and 22.4 ± 0.35 µM.
For `Cc1nc(C)c(COc2ccc(/C=C/C(=O)c3c(OCc4nc(C)c(C)nc4C)cc(OCc4nc(C)c(C)nc4C)cc3OCc3nc(C)c(C)nc3C)cc2)nc1C` [Compound 16, (E)-3-(4-((3,5,6-Trimethylpyrazin-2-yl)methoxy)phenyl)-1-(2,4,6-tris((3,5,6-trimethylpyrazin-2-yl)-methoxy)phenyl)prop-2-en-1-one], the concentration for half-maximal inhibition (IC50) is 20.6 ± 1.39 µM in the experiment with HepG-2 (Homo sapiens, HepG2, 72 h); 16.5 ± 0.45 µM with MCF-7 (Homo sapiens, MCF7, 72 h); 30.5 ± 2.62 µM in the experiment on HeLa (Homo sapiens); more than 40 µM in the experiment with Bel-7402 (Homo sapiens, Bel-7402, 72 h); 34.4 ± 2.32 µM in the experiment with HT-29 (Homo sapiens, HT-29, 72 h).
On the same counts, the results for `Cc1nc(C)c(COc2ccc(-c3coc4cc(OCc5nc(C)c(C)nc5C)cc(O)c4c3=O)cc2)nc1C` [Compound 17, 5-Hydroxy-7-((3,5,6-trimethylpyrazin-2-yl)methoxy)-3-(4-((3,5,6-trimethylpyrazin-2-yl)methoxy)-phenyl)-4H-chromen-4-one] are more than 40 µM, more than 40 µM, more than 40 µM, more than 40 µM and 10.7 ± 1.35 µM.
Regarding `Cc1nc(C)c(COc2ccc(-c3coc4cc(O)ccc4c3=O)cc2)nc1C` [Compound 19, 7-Hydroxy-3-(4-((3,5,6-trimethylpyrazin-2-yl)methoxy)phenyl)-4H-chromen-4-one], the IC50 is 14.5 ± 0.48 µM in the experiment with HepG-2 (Homo sapiens, HepG2, 72 h); more than 40 µM with HUVEC-12 (Homo sapiens); 10.4 ± 1.23 µM in the experiment on MCF-7 (Homo sapiens, MCF7, 72 h); 14.3 ± 1.17 µM in the experiment with HeLa (Homo sapiens); 28.9 ± 0.49 µM in the experiment on Bel-7402 (Homo sapiens, Bel-7402, 72 h); 11.7 ± 1.29 µM in the experiment with HT-29 (Homo sapiens, HT-29, 72 h). For the same compound, the “Proliferation Rate (%) 2.5 μM” value in the experiment with HUVEC-12 is reported as −8.75 ± 0.38%. Besides, the “Proliferation Rate (%) 5 μM” value in the experiment on HUVEC-12 is reported as −19.35 ± 0.35%. Besides, the “Proliferation Rate (%) 10 μM” value in the experiment on HUVEC-12 is given as −19.49 ± 2.17%. Also, in the experiment with HUVEC-12, the “Proliferation Rate (%) 20 μM” value is given as −24.22 ± 3.19%. In addition, in the experiment with HUVEC-12, the “Proliferation Rate (%) 40 μM” value is listed as −25.07 ± 1.02%.
With `Cc1nc(C)c(COc2ccc(-c3coc4cc(OCc5nc(C)c(C)nc5C)ccc4c3=O)cc2)nc1C` [Compound 20, 7-((3,5,6-Trimethylpyrazin-2-yl)methoxy)-3-(4-((3,5,6-trimethylpyrazin-2-yl)methoxy)phenyl)-4H-chromen-4-one], the half-inhibitory concentration (IC50) in the experiment on HepG-2 (Homo sapiens, HepG2, 72 h) was more than 40 µM; with MCF-7 (Homo sapiens, MCF7, 72 h), more than 40 µM; in the experiment with HeLa (Homo sapiens), 16.5 ± 1.79 µM; with Bel-7402 (Homo sapiens, Bel-7402, 72 h) it was 25.2 ± 1.72 µM; with HT-29 (Homo sapiens, HT-29, 72 h), 10.9 ± 2.3 µM.
The compound `N.N.[Cl][Pt][Cl]` [DDP, reference compound] registered a 50% inhibitory concentration (IC50) with HepG-2 (72 h) of 4.14 ± 0.16 µM. In the experiment on HUVEC-12, the “Proliferation Rate (%) 2.5 μM” value is −23.93 ± 0.75%, the “Proliferation Rate (%) 5 μM” value was −31.38 ± 1.46%, the “Proliferation Rate (%) 10 μM” value was −58.24 ± 0.82% and the “Proliferation Rate (%) 20 μM” value is listed as −66.58 ± 1.75%. Further, in the experiment on HUVEC-12, the “Proliferation Rate (%) 40 μM” value is −82.69 ± 2.19% and half-maximal inhibition (IC50) was put at 9.11 ± 0.54 µM. Moreover, the IC50 in the experiment on MCF-7 (72 h) is 6.75 ± 0.57 µM. This compound gave an IC50 in the experiment with HeLa of 4.76 ± 0.41 µM. In the experiment with Bel-7402 (72 h), it took 6.73 ± 0.37 µM to reach half-maximal inhibition (IC50). Also, the half-inhibitory concentration (IC50) in the experiment on HT-29 (72 h) turned out to be 5.83 ± 0.59 µM.
`O=c1c(-c2ccc(O)cc2)coc2cc(O)ccc12` [Daidzein]: the IC50 in the experiment with HepG-2 (Homo sapiens, HepG2, 72 h) is 21.8 ± 1.53 µM; in the experiment on MCF-7 (Homo sapiens, MCF7, 72 h) it was 36.8 ± 1.48 µM; with HeLa (Homo sapiens) it was more than 40 µM; in the experiment on Bel-7402 (Homo sapiens, Bel-7402, 72 h), more than 40 µM; in the experiment on HT-29 (Homo sapiens, HT-29, 72 h), more than 40 µM.
In the case of `O=c1c(O)c(-c2ccc(O)c(O)c2)oc2cc(O)ccc12` [Fisetin], the 50% inhibitory concentration (IC50) came to 17.4 ± 1.04 µM in the experiment with HepG-2 (Homo sapiens, HepG2, 72 h); 38.1 ± 1.83 µM in the experiment with MCF-7 (Homo sapiens, MCF7, 72 h); 20.9 ± 1.65 µM in the experiment with HeLa (Homo sapiens); 25.5 ± 1.54 µM in the experiment on Bel-7402 (Homo sapiens, Bel-7402, 72 h); 23.9 ± 0.81 µM in the experiment with HT-29 (Homo sapiens, HT-29, 72 h).
For `O=c1c(-c2ccc(O)cc2)coc2cc(O)cc(O)c12` [Genistein], the IC50 in the experiment with HepG-2 (Homo sapiens, HepG2, 72 h) is 19.8 ± 1.31 µM; in the experiment on MCF-7 (Homo sapiens, MCF7, 72 h), 35.6 ± 1.38 µM; in the experiment with HeLa (Homo sapiens), 34.6 ± 2.52 µM; in the experiment with Bel-7402 (Homo sapiens, Bel-7402, 72 h) it was 34.7 ± 0.63 µM; in the experiment on HT-29 (Homo sapiens, HT-29, 72 h) it was 31.13 ± 0.26 µM.
As for `O=c1cc(-c2ccc(O)c(O)c2)oc2cc(O)cc(O)c12` [Luteolin], the 50% inhibitory concentration (IC50) with HepG-2 (Homo sapiens, HepG2, 72 h) was determined as 11.8 ± 0.44 µM; in the experiment on MCF-7 (Homo sapiens, MCF7, 72 h), 17 ± 0.31 µM; in the experiment on HeLa (Homo sapiens), 21.3 ± 1.12 µM; in the experiment on Bel-7402 (Homo sapiens, Bel-7402, 72 h), 14.5 ± 0.68 µM; in the experiment with HT-29 (Homo sapiens, HT-29, 72 h) it was 19.2 ± 1.17 µM.
Consider `O=c1c(O)c(-c2ccc(O)c(O)c2)oc2cc(O)cc(O)c12` [Quercetin], for which the concentration for half-maximal inhibition (IC50) in the experiment on HepG-2 (Homo sapiens, HepG2, 72 h) was 13.6 ± 0.73 µM; with MCF-7 (Homo sapiens, MCF7, 72 h) it was more than 40 µM; in the experiment with HeLa (Homo sapiens), 20.8 ± 4.04 µM; with Bel-7402 (Homo sapiens, Bel-7402, 72 h) it was 30.4 ± 2.51 µM; with HT-29 (Homo sapiens, HT-29, 72 h), 27 ± 0.47 µM.

Values taken from article PMC6225232, “Design, Synthesis and Biological Evaluation of Ligustrazine-Flavonoid Derivatives as Potential Anti-Tumor Agents” (Molecules : A Journal of Synthetic Chemistry and Natural …, 2018).
